Reference: article PMC12040169 (PLOS Biology, 2025)
≈ marks a conversion by molar mass, not a printed value.

Assays:
[1] = target: T1, ctFabH (CTL2 FabH), His6(-fMet)SG-ctFabH (Chlamydia trachomatis, UniProt O84242); assay: continuous UV assay of acetoacetyl-CoA at […] nm; format: biochemical; settings: 20 µM enzyme, 100 µM acetyl-CoA, 100 µM malonyl-CoA, pH 8.0, 25 °C, 50 mM MgCl2
T1 construct: synthetic gene, modified pRSF-Duet1, E. coli host; partly acylated (mainly pentanoyl) as purified
T1 sequence (O84242 2-327): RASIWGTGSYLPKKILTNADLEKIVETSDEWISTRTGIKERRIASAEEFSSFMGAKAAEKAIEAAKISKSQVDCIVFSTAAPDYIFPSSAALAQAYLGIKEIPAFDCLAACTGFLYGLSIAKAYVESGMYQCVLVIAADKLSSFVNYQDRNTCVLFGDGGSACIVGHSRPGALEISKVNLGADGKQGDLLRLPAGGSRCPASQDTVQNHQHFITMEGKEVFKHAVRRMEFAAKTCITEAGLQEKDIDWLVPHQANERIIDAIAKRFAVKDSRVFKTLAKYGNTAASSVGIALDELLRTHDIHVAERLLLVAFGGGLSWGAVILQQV

[2] = test system: T2, G. vaginalis; assay: microbe, parasite or virus in culture; set-up: Microbial growth in liquid dilution assay, OD600 relative to DMSO control; settings: Gardnerella vaginalis, read-out: G. vaginalis, IC50 (µM) estimate
T2 construct: DSM 4944

[3] = test system: T3, CTL2-GFP (C. trachomatis L2/434/Bu, GFP-expressing); assay: microbe, parasite or virus in culture; set-up: species or system HeLa; Intracellular C. trachomatis growth in HeLa cells, bulk GFP fluorescence relative to DMSO; settings: Chlamydia trachomatis, 28.5 h; bulk GFP
T3 construct: L2/434/Bu, GFP-expressing
Procedure: (§1) MICs were calculated as described above.

[4] = test system: T4, L. crispatus; assay: microbe, parasite or virus in culture; set-up: Microbial growth in liquid dilution assay, OD600 relative to DMSO control; settings: Lactobacillus crispatus; estimated IC50; read-out: L. crispatus, IC50 (µM) estimate
T4 construct: DSM 20584

[5] = test system: T3, CTL2-GFP (C. trachomatis L2/434/Bu, GFP-expressing); assay: microbe, parasite or virus in culture; set-up: Intracellular C. trachomatis growth in HeLa cells, bulk GFP fluorescence relative to DMSO; settings: Chlamydia trachomatis, HeLa, 28.5 h; bulk GFP
Procedure: as §1

[6] = test system: T5, C. albicans; assay: microbe, parasite or virus in culture; set-up: Microbial growth in liquid dilution assay, OD600 relative to DMSO control; settings: Candida albicans, read-out: C. albicans, IC50 (µM) estimate
T5 construct: DSM 1577

[7] = test system: T6, L. iners; assay: organism not typed; set-up: Microbial growth in liquid dilution assay, OD600 relative to DMSO control; settings: estimated IC50; read-out: L. iners, IC50 (µM) estimate
T6 construct: DSM 13335

[8] = test system: T7, L. reuteri; assay: microbe, parasite or virus in culture; set-up: Microbial growth in liquid dilution assay, OD600 relative to DMSO control; settings: Limosilactobacillus reuteri; estimated IC50; read-out: L. reuteri, IC50 (µM) estimate
T7 construct: DSM 20016
Excerpt: (§2) Compound effects on commensal microbes in dilution assay As our objective was to discover compounds that inhibit Chlamydia selectively but spare commensal bacteria, we further tested 15 of our top compounds (c1e–c10e and c1v–c5v) against five bacterial species, Escherichia coli, Lactobacillus reuteri, Enterococcus faecalis, Bacteroides thetaiotaomicron, and Bifidobacterium adolescentis, representing the four dominating phyla of the human gut microbiota. […] Exceptions were c3e and c5e, which at 30 µM were inhibitory to some species. […] Of note, c1e–c3e had little or no effect on the growth of an even larger set of species of gut bacteria, also including Blautia coccoides, Prevotella copri, Prevotella histicola, Bacteroides fragilis, and Dubosiella newyorkensis, when tested in radial diffusion assays, in which the bacteria were exposed to compounds for 24–48 h before measurements of growth inhibition zones (S10B Fig and S5G Data).

[9] = test system: T8, E. faecalis; assay: microbe, parasite or virus in culture; set-up: Microbial growth in liquid dilution assay, OD600 relative to DMSO control; settings: Enterococcus faecalis; estimated IC50; read-out: E. faecalis, IC50 (µM) estimate
T8 construct: DSM 20478
Excerpt: as §2

[10] = test system: T9, B. thetaiotaomicron; assay: microbe, parasite or virus in culture; set-up: Microbial growth in liquid dilution assay, OD600 relative to DMSO control; settings: Bacteroides thetaiotaomicron; estimated IC50; read-out: B. thetaiotaomicron, IC50 (µM) estimate
T9 construct: DSM 2079
Excerpt: as §2

[11] = test system: T10, B. adolescentis; assay: microbe, parasite or virus in culture; set-up: Microbial growth in liquid dilution assay, OD600 relative to DMSO control; settings: Bifidobacterium adolescentis; estimated IC50; read-out: B. adolescentis, IC50 (µM) estimate
T10 construct: DSM 20083
Excerpt: as §2

[12] = test system: T11, E. coli; assay: microbe, parasite or virus in culture; set-up: Microbial growth in liquid dilution assay, OD600 relative to DMSO control; settings: Escherichia coli; estimated IC50; read-out: E. coli, IC50 (µM) estimate
T11 construct: DSM 301
Excerpt: as §2

[13] = test system: T3, CTL2-GFP (C. trachomatis L2/434/Bu, GFP-expressing); assay: microbe, parasite or virus in culture; set-up: C. trachomatis growth in HeLa, dose-response, mean of bulk GFP fluorescence and imaged total inclusion area; settings: Chlamydia trachomatis, HeLa, 28.5 h; mean of GFP and inclusion area
Method in brief: (§3)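 Infected cells treated with library compounds were read for bulk GFP (chlamydial growth) and resorufin fluorescence (host viability), then fixed, Hoechst-stained and imaged. Inclusion area and number from GFP, plus nuclei counts, served as additional growth and viability proxies; MICs derived as previously described.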

[14] = in vitro; set-up: Viability of infected HeLa host cells, resazurin conversion, bulk resorufin fluorescence relative to DMSO; settings: human, hela cells; bulk resorufin, mean of 3
[15] = test system: T3, CTL2-GFP (C. trachomatis L2/434/Bu, GFP-expressing); assay: microbe, parasite or virus in culture; set-up: species or system HeLa; C. trachomatis growth in HeLa, dose-response, mean of bulk GFP fluorescence and imaged total inclusion area; settings: Chlamydia trachomatis, 28.5 h; mean of GFP and inclusion area
Method in brief: as §3

Compound | IC50 [8] | IC50 [9] | IC50 [10] | IC50 [11] | IC50 [12] | IC50 [13] | viability at 28.5 h, 0.000416667 µM [14] | viability at 28.5 h, 0.00125 µM [14] | viability at 28.5 h, 0.00375 µM [14] | viability at 28.5 h, 0.0123333 µM [14] | viability at 28.5 h, 0.037 µM [14] | viability at 28.5 h, 0.111 µM [14] | viability at 28.5 h, 0.333 µM [14] | viability at 28.5 h, 1 µM [14] | viability at 28.5 h, 3 µM [14] | viability at 28.5 h, 10 µM [14] | viability at 28.5 h, 30 µM [14] | MIC [15] | also measured
CC(=O)SCCNC(=O)CCNC(=O)[C@H](O)C(C)(C)COP(=O)(O)OP(=O)(O)OC[C@H]1O[C@@H](n2cnc3c(N)ncnc32)[C@H](O)[C@@H]1OP(=O)(O)O [acetyl-CoA] | – | – | – | – | – | – | – | – | – | – | – | – | – | – | – | – | – | – | continuous UV assay of acetoacetyl-CoA at 302 nm [1]: using acetyl-CoA and malonyl-CoA (instead of malonyl-ACP) as substrates
Cc1noc(NS(=O)(=O)c2ccc(NC(=O)CSc3nc4ccccc4s3)cc2)c1C [c1v] | > 30 µM | > 30 µM | > 30 µM | > 30 µM | > 30 µM | – | – | – | – | – | – | – | – | – | – | – | – | – | IC50 [2]: > 30 µM; MIC [3]: 0.552 µM (≈ 0.262 µg/mL); IC50 [4]: > 30 µM; IC50 [5]: 0.412 µM; IC50 [6]: > 30 µM; IC50 [7]: > 30 µM
O=C(c1ccc(-c2ccc(F)cc2)o1)N1C[C@H]2CC[C@](O)(c3ccc(F)cc3)[C@H]2C1 [c2e] | > 30 µM | > 30 µM | > 30 µM | > 30 µM | > 30 µM | 0.0961 µM | 90.3% | 85.8% | 93.6% | 89% | 91.7% | 95.5% | 95.7% | 93.7% | 98.2% | 98.8% | 116% | 0.139 µM (≈ 0.0569 µg/mL) | IC50 [2]: > 30 µM; IC50 [4]: > 30 µM; IC50 [6]: > 30 µM; IC50 [7]: > 30 µM
O=C(N/N=C\c1ccc([N+](=O)[O-])o1)c1nc(-c2ccccc2)cc(-c2ccccc2)n1 [c3e] | > 30 µM | 15.4 µM | 10.3 µM | 18.3 µM | > 30 µM | 0.126 µM | 92% | 92.4% | 88.3% | 89.2% | 86.8% | 92.2% | 91.6% | 90.7% | 90% | 98.9% | 107% | – | IC50 [2]: > 30 µM; IC50 [4]: > 30 µM; IC50 [6]: > 30 µM; IC50 [7]: > 30 µM
c1c(C2CC2)[nH]c2nc(N3CCCC3)nc(N3CCCC3)c12 [c7e] | > 30 µM | > 30 µM | > 30 µM | > 30 µM | > 30 µM | 0.443 µM | 88.8% | 85.2% | 86.7% | 86.6% | 89.7% | 85.9% | 89.7% | 87.4% | 89.6% | 86.6% | 81.1% | 0.669 µM (≈ 0.199 µg/mL) | –
O=C1C(NCCO)=C(Nc2cccc(Cl)c2)C(=O)c2ccccc21 [c45e] | – | – | – | – | – | 6.16 µM | 89.2% | 87.4% | 91% | 91.6% | 91.8% | 88.5% | 92.8% | 89.8% | 93.6% | 97.9% | 102% | 19.4 µM (≈ 6.66 µg/mL) | –
Cc1cccc(OCC(C)NC(=O)NCCc2cnn(C)c2)c1 (stereo not shown) [c47e] | – | – | – | – | – | 6.59 µM | 97.2% | 99.7% | 102% | 104% | 105% | 100% | 112% | 106% | 109% | 113% | 118% | 12.1 µM (≈ 3.83 µg/mL) | –
Oc1ccccc1Nc1nc(NC2CCCC2)c2ccccc2n1 [c49e] | – | – | – | – | – | 7.48 µM | 84.4% | 94.9% | 87.6% | 90% | 86% | 91.7% | 87.8% | 90.1% | 84.7% | 90.6% | 77.3% | 10.8 µM (≈ 3.45 µg/mL) | –
O=C(NCCCn1ccnc1)c1cc(-c2cccc(Br)c2)nc2ccccc12 [c50e] | – | – | – | – | – | 7.95 µM | 90.5% | 90.8% | 90.1% | 87.8% | 86.1% | 90.6% | 85.4% | 89.1% | 86.3% | 90% | 84.8% | 9.27 µM (≈ 4.03 µg/mL) | –
C1=C(CCNCCc2ccccc2)c2ccccc2C12CCCC2 [c51e] | – | – | – | – | – | 8.3 µM | 99.8% | 96.2% | 101% | 98.1% | 101% | 97.8% | 99.6% | 102% | 100% | 106% | 96.5% | 9.36 µM (≈ 2.97 µg/mL) | –
COc1ccc(CC(=O)N2CCCC(c3nc(C)c4c(n3)N(CC3CC3)CCC4)C2)cc1 (stereo not shown) [c52e] | – | – | – | – | – | 8.46 µM | 85.5% | 91.1% | 88.5% | 92.2% | 88.5% | 91.4% | 88.5% | 96.8% | 90.3% | 95.6% | 102% | 9.34 µM (≈ 4.06 µg/mL) | –
